In PMC11676667, “Pharmacokinetics of Oral Cannabinoid Δ8-Tetrahydrocannabivarin and Its Main Metabolites in Healthy Participants” (Pharmaceuticals, 2024):

Test: Plasma pharmacokinetics after single oral dose of Δ8-THCV in MCT oil (LC-MS/MS, non-compartmental analysis)
Format: in vivo, human
Details: of 504 plasma samples from 15 participants after oral Δ8-THCV
Experimental: The study was a two-phase, dose-ranging, placebo-controlled trial in 21 healthy participants to assess the safety, tolerability, PK, and PD of an oral formulation of Δ8-THCV. A detailed description of the study was published elsewhere. The study product was a medium-chain triglyceride (MCT) oil oral formulation of Δ8-THCV at a concentration of 50 mg/mL. […] MCT oil was used as placebo.
Twenty-one participants were enrolled in the clinical study and plasma samples from 15 participants were sent to our laboratory for pharmacokinetic evaluation. Of these, 3 participants were enrolled in Phase 1, an unblinded, placebo-controlled, single ascending dose design and 12 were enrolled in Phase 2, a double-blind, randomized, placebo-controlled, within-participant crossover design. At each study session, participants received one of the following oral doses: placebo, 12.5 mg, 25 mg, 50 mg, 100 mg, and 200 mg of the aforementioned Δ8-THCV formulation in MCT. Study visits were separated by a washout period of a minimum of one week and maximum of 28 days. Participants entered the research facility the night before the session and received the study product in the morning after a standardized high-fat, high-calorie breakfast. PK blood samples included in this analysis were collected prior to dosing and 0.5, 1, 2, 4, 6, and 8 h after dose. Immediately following collection into K2EDTA tubes, blood samples were placed on wet ice, centrifuged, and plasma was immediately frozen at −80 °C until shipment to the bioanalytical laboratory (iC42 Clinical Research and Development, University of Colorado, Aurora, CO, USA) on dry ice.
Plasma samples were analyzed using a validated high-performance liquid chromatography–tandem mass spectrometry (LC-MS/MS) assay. The assay included Δ8-THCV and its main metabolites 11-OH-Δ8-THCV and Δ8-THCV-COOH, Δ9-THCV and its main metabolite Δ9-THCV-COOH, and Δ9-THC and Δ8-THC as well as their main metabolites (Figure 3). The complete list of analyzed compounds and a summary of the key performance parameters of the assay are presented in Appendix A and Table A1 and Table A2. […] For the PK analysis, concentrations below the lower limit of quantification were set to 0 ng/mL. PK parameters were calculated using non-compartmental analysis (Phoenix WinNonlin version 8.4., Certara, Princeton, NJ, USA). Statistical analysis was carried out using GraphPad Prism (version 10, Boston, MA, USA).

CCCCCc1cc(O)c2c(c1)OC(C)(C)[C@@H]1CC=C(C)CC21 (some centres unmarked) [Δ8-THC, Δ8-tetrahydrocannabinol, reference compound]
number of positive plasma samples: No positive samples

CCCCCc1cc(O)c2c(c1)OC(C)(C)[C@@H]1CCC(C)=CC21 (some centres unmarked) [Δ9-THC, Δ9-tetrahydrocannabinol, reference compound]
number of positive plasma samples: No positive samples
